The text below walks through data of publication PMC2932787 (Journal of the American Society for Mass Spectrometry, 2010).

In test [1] the target is calcium-saturated calmodulin (CaM·4Ca^2+) (Homo sapiens, UniProt P0DP23).
Test [2] concerns the target calcium-saturated calmodulin (CaM·4Ca^2+) (Sus scrofa, UniProt F2Z5G3).
Test [3] deals with calmodulin. As to conditions: read-out: dissociation constant; 25°C, pH 7.3; fluorescence of dansylcalmodulin; ref [33]; cited from earlier work.
Test [4] deals with calmodulin. As to conditions: read-out: dissociation constant; 4°C, pH 7.0; equilibrium dialysis; ref [35]; cited from earlier work. Background: In equilibrium dialysis free small molecules cross a membrane that holds back macromolecules.
In test [5] the test system is calmodulin. As to conditions: amino- and carboxy-terminal deletion peptides; ref [38]; cited from earlier work.
The target in test [6] is Porcine calmodulin saturated with calcium (CaM·4Ca2+) (porcine). The test is described as follows: HDX-MS.
Test [7] shares this target. Nature of the test: HDX-MS. The source holds these as a separate data set.
[8] abbreviates: from ΔD1, corrected for 50% D2O.

pKd: −log10 of the molar value. Read-outs that look alike come from different tables or passages of the source.

Sequence of β-endorphin (P01189 237-267): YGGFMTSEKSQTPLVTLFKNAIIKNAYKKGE

Turning to `CC[C@H](C)[C@H](NC(=O)[C@H](C)NC(=O)[C@H](CC(N)=O)NC(=O)[C@H](CCCCN)NC(=O)[C@H](Cc1ccccc1)NC(=O)[C@H](CC(C)C)NC(=O)[C@@H](NC(=O)[C@@H](NC(=O)[C@H](CC(C)C)NC(=O)[C@@H]1CCCN1C(=O)[C@@H](NC(=O)[C@H](CCC(N)=O)NC(=O)[C@H](CO)NC(=O)[C@H](CCCCN)NC(=O)[C@H](CCC(=O)O)NC(=O)[C@H](CO)NC(=O)[C@@H](NC(=O)[C@H](CCSC)NC(=O)[C@H](Cc1ccccc1)NC(=O)CNC(=O)CNC(=O)[C@@H](N)Cc1ccc(O)cc1)[C@@H](C)O)[C@@H](C)O)C(C)C)[C@@H](C)O)C(=O)N[C@H](C(=O)N[C@@H](CCCCN)C(=O)N[C@@H](CC(N)=O)C(=O)N[C@@H](C)C(=O)N[C@@H](Cc1ccc(O)cc1)C(=O)N[C@@H](CCCCN)C(=O)N[C@@H](CCCCN)C(=O)NCC(=O)N[C@@H](CCC(=O)O)C(=O)O)[C@@H](C)CC` [β-endorphin], the “backbone amide protons of CaM·4Ca^2+ that become protected on binding” value in test [1] (setting [8]) was “approximately 30”. For the same molecule, the “ΔD1 (difference in deuterium uptake of the protein on binding)” value in test [1] (traditional PLIMSTEX, protein mass readout, 50% D2O) is reported as 15.0. The “ΔD1 (difference in deuterium uptake between bound and unbound peptide)” value in test [2] (dPLIMSTEX, peptide mass readout, 50% D2O) is 3.96 ± 0.09. In test [2] (setting [8]), the “backbone amides of the peptide protected upon binding to CaM·4Ca^2+” value is recorded as “at least eight”. Also, the pKd in test [3] is 5.42 to 5.72; in test [4] it was 5.34 to 5.60. Moreover, the “domain responsible for inhibition of calmodulin function” value in test [5] is “residues 14–25”.
On to “β-endorphin (from UniProt P01189 237-267) (peptide)”, for which the Ka in test [6] is 220000 M⁻¹; in test [7] it was 205000 M⁻¹. The pKd was 5.35 in test [6] and 5.31 in test [7].
